Where two headings read alike, the source gives them in different places.
Legend:
[1] = test system: Polymorphonuclear Neutrophils (PMN); test: In vitro phagocytosis of boar sperm by PMN (phagocytosis assay); type: cell-based, pig; details: for % of phagocytosed sperm: Exp. 1; for inhibition at 200 µM / inhibition at 500 µM / inhibition at 1000 µM / inhibition at 2000 µM: Sus scrofa, Polymorphonuclear neutrophil, read-out: % inhibition (percentage decrease of phagocytosis relative to control)
Protocol: Tyrode's medium was used as described as “standard Tyrode's medium” in […] et al. ([…], Harrison, R A P, Miller, N G A, Topper, E K, and Woelders, H, 1998, Enhanced Binding of Zona Pellucida Proteins to the Acrosomal Region of Intact Boar Spermatozoa in Response to Fertilizing Conditions: A Flow Cytometric Study. […] Serum was prepared from blood collected from 11 primiparous sows, pooled, and frozen in aliquots at -80° C. Per experiment, 20 ml peripheral blood of a single Dutch Landrace sow (each experiment a different sow) was collected in heparinized vacutainers (Venoject, Omnilabo, Breda, The Netherlands). The peripheral blood was subsequently diluted with an equal volume of phosphate buffered saline (PBS). […] The supernatant, including the mononuclear cells at the interface, was removed. The pellet was resuspended in 2 ml of ice-cold distilled water to lyse the erythrocytes. […] The PMNs were pelleted by centrifugation for 10 min at 400×g and the lysis procedure was repeated. […] All cell suspensions were pooled together, mixed well, and subjected to centrifugation. The PMN were resuspended in TM-s with inactivated complement, and the cell concentration was determined using a hemocytometer. The PMN preparation was stored overnight at 4° C. […] The viability, assessed by trypan blue exclusion, was >98%. Semen was obtained from Dutch A.I. stations. Per experiment, semen was used from a single Yorkshire breeding boar (each experiment a different boar). At the AI-station, the semen was diluted to a concentration of approximately 30×10^6 cells/ml in Beltsville Thawing Solution (BTS) (Johnson et al., 1988). The diluted semen was stored at 17° C. for up to 48 hours, until the diluted semen sample was used. […] Aliquots of 80 μl of the PMN suspension (see, PMN isolation and preparation of PMNs) in TM or TM-s, with either intact or inactivated complement, were transferred to a 96-well polystyrene microtest plate. […] The samples were incubated with gentle swirling on a test plate shaker. […] The heparin facilitates dissociation of agglutinated PMNs. The samples were thoroughly mixed, left for 15 min., and mixed again. […] The frozen-thawed semen was taken from a large stock of semen from one ejaculate and washed 3 times in PBS prior to use. […] The mounts enabled observation and counting of fluorescently labeled spermatozoa inside and outside the phagocytes. By focusing at different levels in the mount, spermatozoa that were located above or below the PMN could be distinguished from those that were phagocytosed. In many PMNs that had ingested a spermatozoon, the presence of the sperm nucleus or tail caused a conspicuous change of the shape of the PMN. Two hundred spermatozoa were evaluated and classified as inside or outside the PMN (i.e., phagocytosed or not phagocytosed). The same fixed mounts were used to assess the acrosome morphology of the non-phagocytosed spermatozoa at the moment of fixation.

sows = test: Example III Series 2: embryos and accessory sperm after insemination of sows; type: in vivo, pig
Protocol: Series 2: Batches of sows (parity 2-13) received hCG at 84 hours after weaning. The sows were inseminated at 16 hours after hCG administration (on average 26 hours, ranging from 21-28 hours, before ovulation as observed by transrectal ultrasonography) or inseminated at 4 hours after ovulation. […] The sows were slaughtered at 115 (112-120) hours after ovulation. The embryos were flushed, examined morphologically, and the number of accessory sperm were counted.

[2] = Exp. 2, 0.2 mM, without pre-incubation, 15 min
[3] = Exp. 2, 0.2 mM, without pre-incubation, 30 min
[4] = Exp. 2, 0.2 mM, without pre-incubation, 60 min
[5] = Exp. 2, 0.5 mM, after pre-incubation, 15
[6] = Exp. 2, 0.5 mM, after pre-incubation, 30
[7] = Exp. 2, 0.5 mM, after pre-incubation, 60
[8] = Exp. 2, 0.5 mM, without pre-incubation, 15 min
[9] = Exp. 2, 0.5 mM, without pre-incubation, 30 min
[10] = Exp. 2, 0.5 mM, without pre-incubation, 60 min
[11] = Exp. 2, 1 mM, after pre-incubation, 15
[12] = Exp. 2, 1 mM, after pre-incubation, 30
[13] = Exp. 2, 1 mM, after pre-incubation, 60
[14] = Exp. 2, 1 mM, without pre-incubation, 15 min
[15] = Exp. 2, 1 mM, without pre-incubation, 30 min
[16] = Exp. 2, 1 mM, without pre-incubation, 60 min
[17] = Exp. 2, 2 mM, after pre-incubation, 15
[18] = Exp. 2, 2 mM, after pre-incubation, 30
[19] = Exp. 2, 2 mM, after pre-incubation, 60
[20] = Exp. 2, 2 mM, without pre-incubation, 15 min
[21] = Exp. 2, 2 mM, without pre-incubation, 30 min
[22] = Exp. 2, 2 mM, without pre-incubation, 60 min
[23] = Exp. 3, 1 mM, pre-incubation of sperm 30 min. at 38° C., 15 min
[24] = Exp. 3, 1 mM, pre-incubation of sperm 30 min. at 38° C., 30 min
[25] = Exp. 3, 1 mM, pre-incubation of sperm 30 min. at 38° C., 60 min

Q: Cn1c(=O)c2c(ncn2C)n(C)c1=O [caffeine, 1,3,7-Trimethylxanthine] was tested. Which “phagocytosis of sperm by PMN in vitro, in words” value [1] did it give?
A: decreased

Q: What about the “% of phagocytosed sperm” value ([1]; 1 mM, without pre-incubation, 1st value column, head not printed) of the same compound?
A: 20%

Q: And the “% of phagocytosed sperm” value ([1]; 1 mM, without pre-incubation, 2nd value column, head not printed)?
A: 22%

Q: And the “% of phagocytosed sperm” value ([1]; 1 mM, without pre-incubation, 3rd value column, head not printed)?
A: 18%

Q: What about the “% of phagocytosed sperm” value ([1]; 2 mM, preincubated 30 min. at 38° C., phagocytosis time 15 min) of the same compound?
A: 22%

Q: And the “% of phagocytosed sperm” value ([1]; 2 mM, preincubated 30 min. at 38° C., phagocytosis time 30 min)?
A: 15%

Q: What about the “% of phagocytosed sperm” value ([1]; 2 mM, preincubated 30 min. at 38° C., phagocytosis time 60 min) of the same compound?
A: 29%

Q: What about the “% of phagocytosed sperm” value ([1]; 2 mM, preincubated 30 min. at 38° C., phagocytosis time 90 min) of the same compound?
A: 20%

Q: And the “% phagoc. sperm” value [1, 2]?
A: 48%

Q: And the “% phagoc. sperm” value [1, 3]?
A: 73%

Q: What about the “% phagoc. sperm” value [1, 4] of the same compound?
A: 75%

Q: What about the “% phag. Sperm” value [1, 5] of the same compound?
A: 29%

Q: What about the “% phag. Sperm” value [1, 6] of the same compound?
A: 28%

Q: And the “% phag. Sperm” value [1, 7]?
A: 42%

Q: What about the “% phagoc. sperm” value [1, 8] of the same compound?
A: 40%

Q: What about the “% phagoc. sperm” value [1, 9] of the same compound?
A: 67%

Q: What about the “% phagoc. sperm” value [1, 10] of the same compound?
A: 68%

Q: And the “% phag. Sperm” value [1, 11]?
A: 14%

Q: What about the “% phag. Sperm” value [1, 12] of the same compound?
A: 26%

Q: And the “% phag. Sperm” value [1, 13]?
A: 24%

Q: And the “% phagoc. sperm” value [1, 14]?
A: 29%

Q: And the “% phagoc. sperm” value [1, 15]?
A: 58%

Q: What about the “% phagoc. sperm” value [1, 16] of the same compound?
A: 62%

Q: And the “% phag. Sperm” value [1, 17]?
A: 9%

Q: And the “% phag. Sperm” value [1, 18]?
A: 17%

Q: What about the “% phag. Sperm” value [1, 19] of the same compound?
A: 21%

Q: What about the “% phagoc. sperm” value [1, 20] of the same compound?
A: 28%

Q: And the “% phagoc. sperm” value [1, 21]?
A: 51%

Q: And the “% phagoc. sperm” value [1, 22]?
A: 56%

Q: What about the “% phag. Sperm” value [1, 23] of the same compound?
A: 32%

Q: And the “% phag. Sperm” value [1, 24]?
A: 45%

Q: And the “% phag. Sperm” value [1, 25]?
A: 56%

Q: And the “phagocytosis of sperm, in words” value ([1]; Exp. 4, caffeine added to the semen extender the day before use)?
A: inhibits phagocytosis after one day

Q: What about the “phagocytosis of sperm by PMN in vitro, in words” value ([1]; Exp. 5, 1 mM) of the same compound?
A: reduced the phagocytosis of sperm by PMN in vitro

Q: And the inhibition at 200 µM [1, 2]?
A: 9%

Q: And the inhibition at 200 µM [1, 3]?
A: 4%

Q: What about the inhibition at 200 µM [1, 4] of the same compound?
A: 3%

Q: And the inhibition at 500 µM [1, 5]?
A: 38%

Q: What about the inhibition at 500 µM [1, 6] of the same compound?
A: 56%

Q: And the inhibition at 500 µM [1, 7]?
A: 33%

Q: What about the inhibition at 500 µM [1, 8] of the same compound?
A: 25%

Q: What about the inhibition at 500 µM [1, 9] of the same compound?
A: 12%

Q: And the inhibition at 500 µM [1, 10]?
A: 12%

Q: And the inhibition at 1000 µM [1, 11]?
A: 70%

Q: And the inhibition at 1000 µM [1, 12]?
A: 59%

Q: What about the inhibition at 1000 µM [1, 13] of the same compound?
A: 62%

Q: What about the inhibition at 1000 µM [1, 14] of the same compound?
A: 45%

Q: And the inhibition at 1000 µM [1, 15]?
A: 24%

Q: What about the inhibition at 1000 µM [1, 16] of the same compound?
A: 19%

Q: And the inhibition at 2000 µM [1, 17]?
A: 81%

Q: What about the inhibition at 2000 µM [1, 18] of the same compound?
A: 73%

Q: And the inhibition at 2000 µM [1, 19]?
A: 67%

Q: And the inhibition at 2000 µM [1, 20]?
A: 47%

Q: And the inhibition at 2000 µM [1, 21]?
A: 33%

Q: What about the inhibition at 2000 µM [1, 22] of the same compound?
A: 27%

Q: What about the inhibition at 1000 µM [1, 23] of the same compound?
A: 43%

Q: What about the inhibition at 1000 µM [1, 24] of the same compound?
A: 37%

Q: What about the inhibition at 1000 µM [1, 25] of the same compound?
A: 29%

Q: And the “% fertilized oocytes, in words” value (sows)?
A: tended to be higher

Reference: patent US6890708B2, “Method for improving the quality of sperm for artificial insemination of animals” (priority 2000, dated 2005)
